This is an account of results in US20060134725A1, “Method for the determination of the presence of an antibiotic in a fluid” (priority 2003, published 2006).

Common to all, as to format: cell-based
In experiment [1] the test system is Bacillus stearothermophilus var. calidolactis. In words: Delvotest microbiological test, 0.27 ml test medium, nutrients added as tablet, different volumes of milk. The note with it: for concentration giving a Z-value of 0 (threshold): 2.6 hours at 64° C., Z=0.35.a+0.65.b, FIG. 1. The text has this: (§1) The arrangement can be used for detecting residues of antibiotics in milk. The commercially available Delvotest® and BR®-test are commonly used. Delvotest® comprises an agar matrix, CFU's of an acid forming microorganism, as well as a color indicator. With the arrangement mentioned above it is possible to automatically scan the bottom side of each of the samples in a test plate. The color and the brightness of the reflected light are registered in three variables, each describing one color component, for instance the so-called L*a*b* model. In the L*a*b* model, the color spectrum is divided in a two-dimensional matrix. The position of a color in this matrix is registered by means of the two variables “a” and “b”. The variable L indicates the intensity (for instance, from light blue to dark-blue). It is possible to make a criterion comprising the a-value, b-value and L-value to make a composite function as follows: Z=wL.L+wa.a+wb.b
(§2) where wL, wa and wb are weighting factors for the L-value, a-value and b-value, respectively. […] By combining two or more of the color components in the L*a*b* model in a predetermined manner that depends on the type of residue and the sample, an accurate detection is possible. In practice, a certain value of Z at which a test should switch between positive and negative result (the threshold value) can be experimentally predetermined.
(§3) As outlined in the detailed description, the following equation was used: Z=0.35.a+0.65.b. The explanation of the symbols used in the Figure is as follows.
(§4) A commercially available microbiological test system (Delvotest®) having 0.27 ml of test medium containing agar, CFU's of Bacillus stearothermophilus var. calidolactis, an antifolate, and the indicator Bromocresol Purple was investigated using milk with added penicillin G in concentrations of 0, 2, 3, 4 and 6 ppb. These five milk samples were applied to the test systems in a series of four different volumes, ie. 0.05 ml, 0.10 ml (the Delvotest® recommended volume), 0.20 ml and 0.30 ml. Before addition of the milk, a tablet with nutrients was applied on the test medium. After the milk was added, the tests were incubated for 2.6 hours at 64° C. If there are no or little antibiotics that inhibit the growth of the test organism, after some time, an acid environment is formed by the growing microorganisms and the indicator changes color from blue/purple to yellow. However, if there are sufficient antibiotics to inhibit growth, the color of the indicator remains purple.
Firstly, the colors were measured using the scanning apparatus described in the detailed description using the following formula for the Z-value: Z=0.35.a+0.65.b. […]

Experiment [2] shares this test system. Nature of the experiment: Delvotest microbiological test, 0.27 ml test medium, nutrients as tablet, different milk volumes at different incubation times. As to conditions: 4 ppb penicillin G.
Description: as §1, §2, §3, §4
A similar experimental setup as in Example 1 was used. […] (for 2.4 h, normally referred to as the point of indicator change, and 3.0 h, normally referred to as the point of reading). […]

For experiment [3] the test system is unchanged. In words: Delvotest microbiological test, 0.15 ml test medium with nutrients present in the test medium, different volumes of milk, visual colour score. As to conditions: 3 hours at 64° C., FIG. 3. Here is the method: In this test, the nutrients were present in the test medium. The explanation of the symbols used in the Figure is as follows.
A commercially available microbiolgical test system (Delvotest®) having 0.15 ml of test medium containing agar, CFU's of Bacillus stearothermophilus var. calidolactis, an antifolate, nutrients, and the indicator Bromocresol Purple was investigated using milk with added penicillin G in concentrations of 0, 0.5, 1, 2, 3 and 4 ppb. These six different milk samples were applied to the test systems in a series of five different volumes, i.e. 0.05 ml, 0.10 ml (the Delvotest® recommended volume), 0.15 ml, 0.20 ml and 0.30 ml. After the milk was added, the tests were incubated for 3 hours at a temperature of 64° C. If there are no antibiotics (or only little) that inhibit the growth of the test organism, after a certain amount of time, an acid environment is formed by the growing microorganisms. Then, the color of the indicator changes from blue/purple to yellow.
Intermediate color changes were assigned values of −2, −1, 0, +1 or +2, depending on the degree of coloration. […] If, for example, a visual color of 2 is chosen as the required threshold value, it can be seen from FIG. 3 that, whereas the standard recommended amount of 0.10 ml milk gives a color of 2 at a concentration of 2 ppb penicillin G, whereas for 0.15, 0.20 and 0.30 ml milk this threshold already is reached at 1.7 ppb penicillin G.

Molecules are shown by their SMILES.

On to `CC1(C)S[C@@H]2[C@H](NC(=O)Cc3ccccc3)C(=O)N2[C@H]1C(=O)O` [penicillin G], for which the “concentration giving a Z-value of 0 (threshold)” value in experiment [1] (0.10 ml milk on 0.27 ml test medium) came to 3 ppb; in experiment [1] (0.20 ml milk on 0.27 ml test medium) it was 2.3 ppb; in experiment [1] (0.30 ml milk on 0.27 ml test medium), 2.0 ppb. For the same compound, the “change of sensitivity of the test towards the antibiotic” value in experiment [1] (milk, doubling the amount of fluid sample advocated by the producer of the test) is “increases by a third”. Also, the Z-value in experiment [2] (0.10 ml milk, 2.4 h at 64° C., line ◯ of FIG. 2) stood at 11; in experiment [2] (0.10 ml milk, 3.0 h at 64° C., line ⋄ of FIG. 2), 4; in experiment [2] (0.30 ml milk, 2.4 h at 64° C., line Δ of FIG. 2) it was 14; in experiment [2] (0.30 ml milk, 3.0 h at 64° C., line □ of FIG. 2), 13. The “concentration giving a visual color of 2 (threshold)” value in experiment [3] (0.10 ml milk on 0.15 ml test medium) was 2 ppb; in experiment [3] (0.15 ml milk on 0.15 ml test medium), 1.7 ppb; in experiment [3] (0.20 ml milk on 0.15 ml test medium), 1.7 ppb; in experiment [3] (0.30 ml milk on 0.15 ml test medium) it was 1.7 ppb.
